In ChEMBL document CHEMBL1201861, “Genomics of Drug Sensitity in Cancer screening data, Wellcome Trust Sanger Institute”:

Experiments:
Test in all cases: cells
ES1 = format: functional, cell-based, Homo sapiens; conditions: Homo sapiens, ES1;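 further: growth inhibition of ES1 cells, read out with a cell viability assay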
Description: SANGER: Inhibition of human ES1 cell growth in a cell viability assay.

ES4 = format: functional, cell-based, Homo sapiens; conditions: Homo sapiens, ES4;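 further: growth inhibition of human ES4 cells, read out by a cell viability assay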
Description: SANGER: Inhibition of human ES4 cell growth in a cell viability assay.

EW-13 = format: functional, cell-based, Homo sapiens; conditions: Homo sapiens, EW-13; read-out: IC50;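 further: growth inhibition of EW-13 cells, read out with a cell viability assay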
Description: SANGER: Inhibition of human EW-13 cell growth in a cell viability assay.

EW-16 = format: functional, cell-based, Homo sapiens; conditions: Homo sapiens, EW-16;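 further: growth inhibition of human EW-16 cells, read out as cell viability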
Description: SANGER: Inhibition of human EW-16 cell growth in a cell viability assay.

HCC2157 = format: functional, cell-based, Homo sapiens; conditions: Homo sapiens, HCC2157;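 further: growth inhibition of the cancer cell line, read out as cell viability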
Description: SANGER: Inhibition of human HCC2157 cell growth in a cell viability assay.

HOP-62 = format: functional, cell-based, Homo sapiens; conditions: Homo sapiens, HOP-62;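 further: cell growth inhibition determined with a viability assay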
Description: SANGER: Inhibition of human HOP-62 cell growth in a cell viability assay.

IST-MEL1 = format: functional, cell-based, Homo sapiens; conditions: Homo sapiens, IST-MEL1;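 further: growth inhibition of the cell line, read out with a cell viability assay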
Description: SANGER: Inhibition of human IST-MEL1 cell growth in a cell viability assay.

JVM-3 = format: functional, cell-based, Homo sapiens; conditions: Homo sapiens, JVM-3;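 further: growth inhibition of human JVM-3 cells, read out with a cell viability assay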
Description: SANGER: Inhibition of human JVM-3 cell growth in a cell viability assay.

KALS-1 = format: functional, cell-based, Homo sapiens; conditions: Homo sapiens, KALS-1; read-out: IC50;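 further: growth inhibition of KALS-1 cells, determined with a cell viability assay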
Description: SANGER: Inhibition of human KALS-1 cell growth in a cell viability assay.

KARPAS-299 = format: functional, cell-based, Homo sapiens; conditions: Homo sapiens, KARPAS-299
Description: SANGER: Inhibition of human KARPAS-299 cell growth in a cell viability assay.

KE-37 = format: functional, cell-based, Homo sapiens; conditions: Homo sapiens, KE-37;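 further: growth inhibition of KE-37 cells, read out with a cell viability assay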
Description: SANGER: Inhibition of human KE-37 cell growth in a cell viability assay.

KNS-81-FD = format: functional, cell-based, Homo sapiens; conditions: Homo sapiens, KNS-81-FD;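 further: growth inhibition of KNS-81-FD cells, read out with a cell viability assay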
Description: SANGER: Inhibition of human KNS-81-FD cell growth in a cell viability assay.

KP-N-YS = format: functional, cell-based, Homo sapiens; conditions: Homo sapiens, KP-N-YS;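 further: cell viability assay measuring inhibition of cell line growth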
Description: SANGER: Inhibition of human KP-N-YS cell growth in a cell viability assay.

LAMA-84 = format: functional, cell-based, Homo sapiens; conditions: Homo sapiens, LAMA-84;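 further: growth inhibition of LAMA-84 cells, read out with a cell viability assay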
Description: SANGER: Inhibition of human LAMA-84 cell growth in a cell viability assay.

LAN-6 = format: functional, cell-based, Homo sapiens; conditions: Homo sapiens, LAN-6;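 further: growth inhibition of LAN-6 cells, determined with a cell viability assay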
Description: SANGER: Inhibition of human LAN-6 cell growth in a cell viability assay.

LB771-HNC = format: functional, cell-based; conditions: Homo sapiens;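 further: growth inhibition of LB771-HNC human cells, read out with a cell viability assay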
Description: SANGER: Inhibition of human LB771-HNC cell growth in a cell viability assay.

LB831-BLC = format: functional, cell-based, Homo sapiens; conditions: Homo sapiens, LB831-BLC;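 further: growth inhibition of LB831-BLC cells, read out with a cell viability assay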
Description: SANGER: Inhibition of human LB831-BLC cell growth in a cell viability assay.

LB996-RCC = format: functional, cell-based, Homo sapiens; conditions: Homo sapiens, LB996-RCC
Description: SANGER: Inhibition of human LB996-RCC cell growth in a cell viability assay.

LC-2-ad = format: functional, cell-based, Homo sapiens; conditions: Homo sapiens, LC-2-ad;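 further: growth inhibition of human LC-2-ad cells, read out with a cell viability assay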
Description: SANGER: Inhibition of human LC-2-ad cell growth in a cell viability assay.

LNCaP-Clone-FGC = format: functional, cell-based, Homo sapiens; conditions: Homo sapiens, LNCaP-Clone-FGC
Description: SANGER: Inhibition of human LNCaP-Clone-FGC cell growth in a cell viability assay.

LS-513 = format: functional, cell-based, Homo sapiens; conditions: Homo sapiens, LS-513
Description: SANGER: Inhibition of human LS-513 cell growth in a cell viability assay.

LU-134-A = format: functional, cell-based, Homo sapiens; conditions: Homo sapiens, LU-134-A
Description: SANGER: Inhibition of human LU-134-A cell growth in a cell viability assay.

ML-2 = format: functional, cell-based, Homo sapiens; conditions: Homo sapiens, ML-2;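 further: growth inhibition of ML-2 cells, measured with a cell viability readout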
Description: SANGER: Inhibition of human ML-2 cell growth in a cell viability assay.

MOLT-16 = format: functional, cell-based, Homo sapiens; conditions: Homo sapiens, MOLT-16;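 further: growth inhibition of human MOLT-16 cells, read out with a cell viability assay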
Description: SANGER: Inhibition of human MOLT-16 cell growth in a cell viability assay.

MSTO-211H = format: functional, cell-based, Homo sapiens; conditions: Homo sapiens, MSTO-211H
Description: SANGER: Inhibition of human MSTO-211H cell growth in a cell viability assay.

MZ1-PC = format: functional, cell-based, Homo sapiens; conditions: Homo sapiens, MZ1-PC;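 further: cell viability assay measuring growth inhibition of human MZ1-PC cells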
Description: SANGER: Inhibition of human MZ1-PC cell growth in a cell viability assay.

NCI-H1395 = format: functional, cell-based, Homo sapiens; conditions: Homo sapiens, NCI-H1395;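 further: cell viability assay read-out quantifying reduced proliferation of human NCI-H1395 cells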
Description: SANGER: Inhibition of human NCI-H1395 cell growth in a cell viability assay.

NCI-H209 = format: functional, cell-based, Homo sapiens; conditions: Homo sapiens, NCI-H209;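 further: growth inhibition of human NCI-H209 cells, measured by a cell viability assay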
Description: SANGER: Inhibition of human NCI-H209 cell growth in a cell viability assay.

NCI-H747 = format: functional, cell-based, Homo sapiens; conditions: Homo sapiens, NCI-H747;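 further: growth inhibition of human NCI-H747 cells, read out by a cell viability assay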
Description: SANGER: Inhibition of human NCI-H747 cell growth in a cell viability assay.

SNU1 = format: functional, cell-based, Homo sapiens; conditions: Homo sapiens, SNU1;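 further: growth inhibition of human NCI-SNU-1 cells, measured with a cell viability assay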
Description: SANGER: Inhibition of human NCI-SNU-1 cell growth in a cell viability assay.

NOMO-1 = format: functional, cell-based, Homo sapiens; conditions: Homo sapiens, NOMO-1;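 further: growth inhibition of human NOMO-1 cells measured by a cell viability assay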
Description: SANGER: Inhibition of human NOMO-1 cell growth in a cell viability assay.

ONS-76 = format: functional, cell-based, Homo sapiens; conditions: Homo sapiens, ONS-76;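 further: growth inhibition of human ONS-76 cells, read out with a cell viability assay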
Description: SANGER: Inhibition of human ONS-76 cell growth in a cell viability assay.

RH-1 = format: functional, cell-based, Homo sapiens; conditions: Homo sapiens, RH-1;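 further: growth inhibition of human RH-1 cells, read out with a cell viability assay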
Description: SANGER: Inhibition of human RH-1 cell growth in a cell viability assay.

RKO = format: functional, cell-based, Homo sapiens; conditions: Homo sapiens, RKO;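 further: growth inhibition of human RKO cells, read out with a cell viability assay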
Description: SANGER: Inhibition of human RKO cell growth in a cell viability assay.

RPMI-8866 = format: functional, cell-based, Homo sapiens; conditions: Homo sapiens, RPMI-8866
Description: SANGER: Inhibition of human RPMI-8866 cell growth in a cell viability assay.

SCH = format: functional, cell-based, Homo sapiens; conditions: Homo sapiens, SCH;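 further: growth inhibition of human SCH cells, read out in a cell viability assay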
Description: SANGER: Inhibition of human SCH cell growth in a cell viability assay.

SHP77 = format: functional, cell-based, Homo sapiens, SHP-77; conditions: Homo sapiens, SHP77;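 further: growth inhibition of human SHP-77 cells measured by a cell viability assay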
Description: SANGER: Inhibition of human SHP-77 cell growth in a cell viability assay.

SK-N-FI = format: functional, cell-based, Homo sapiens; conditions: Homo sapiens, SK-N-FI;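 further: cell viability assay measuring growth inhibition of human SK-N-FI cells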
Description: SANGER: Inhibition of human SK-N-FI cell growth in a cell viability assay.

A101D = format: functional, cell-based, Homo sapiens; conditions: Homo sapiens, A101D;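 further: growth inhibition of the cell line, measured with a viability assay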
Description: SANGER: Inhibition of human A101D cell growth in a cell viability assay.

ACN = format: functional, cell-based, Homo sapiens; conditions: Homo sapiens, ACN;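 further: growth inhibition of the human ACN cell line, read out via cell viability testing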
Description: SANGER: Inhibition of human ACN cell growth in a cell viability assay.

AM-38 = format: functional, cell-based, Homo sapiens; conditions: Homo sapiens, AM-38;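 further: growth inhibition of AM-38 cells of human origin, read out by a cell viability assay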
Description: SANGER: Inhibition of human AM-38 cell growth in a cell viability assay.

BB30-HNC = format: functional, cell-based, Homo sapiens; conditions: Homo sapiens, BB30-HNC;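 further: growth inhibition of the cultured cell line, read out by a cell viability assay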
Description: SANGER: Inhibition of human BB30-HNC cell growth in a cell viability assay.

Becker = format: functional, cell-based, Homo sapiens; conditions: Homo sapiens, Becker;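 further: growth inhibition of Becker cells, read out with a cell viability assay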
Description: SANGER: Inhibition of human Becker cell growth in a cell viability assay.

C8166 = format: functional, cell-based, Homo sapiens; conditions: Homo sapiens, C8166;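 further: growth inhibition of human C8166 cells measured by a cell viability assay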
Description: SANGER: Inhibition of human C8166 cell growth in a cell viability assay.

TE-5 = format: functional, cell-based, Homo sapiens; conditions: Homo sapiens, TE-5;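 further: inhibition of cell growth, read out by a cell viability assay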
Description: SANGER: Inhibition of human TE-5 cell growth in a cell viability assay.

U-87 MG = format: functional, cell-based, Homo sapiens, U-87MG ATCC; conditions: Homo sapiens, U-87 MG;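 further: growth inhibition of the cells measured with a viability assay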
Description: SANGER: Inhibition of human U-87-MG cell growth in a cell viability assay.

CAS-1 = format: functional, cell-based, Homo sapiens; conditions: Homo sapiens, CAS-1;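 further: growth inhibition of CAS-1 cells, measured with a cell viability assay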
Description: SANGER: Inhibition of human CAS-1 cell growth in a cell viability assay.

CCRF-CEM = format: functional, cell-based, Homo sapiens; conditions: Homo sapiens, CCRF-CEM;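 further: inhibition of CCRF-CEM cell growth, measured by a cell viability assay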
Description: SANGER: Inhibition of human CCRF-CEM cell growth in a cell viability assay.

Work on `OC[C@H](Cc1ccccc1)Nc1nc(Oc2ccc3c(c2)CCC3)nc2c1ncn2Cc1ccc(-c2ccccc2)cc1` yielded an IC50 (ES1) of 1380 nM, an IC50 (ES4) of 8.51 µM and an IC50 (EW-13) of 413 nM. It also gave an IC50 (EW-16) of 8.29 µM, an IC50 (HCC2157) greater than 10.2 µM and an IC50 (HOP-62) of 3.45 µM. For the same compound, the IC50 (IST-MEL1) was greater than 10.2 µM, the IC50 (JVM-3) was greater than 10.2 µM and the IC50 (KALS-1) was greater than 10.2 µM. It also gave an IC50 (KARPAS-299) greater than 10.2 µM, an IC50 (KE-37) of 9.31 µM and an IC50 (KNS-81-FD) greater than 10.2 µM. For the same compound, the IC50 (KP-N-YS) was 7.6 µM, the IC50 (LAMA-84) was greater than 10.2 µM and the IC50 (LAN-6) was greater than 10.2 µM. It also gave an IC50 (LB771-HNC) of 3.25 µM, an IC50 (LB831-BLC) greater than 10.2 µM and an IC50 (LB996-RCC) greater than 10.2 µM. For the same compound, the IC50 (LC-2-ad) was 8.53 µM, the IC50 (LNCaP-Clone-FGC) was greater than 10.2 µM and the IC50 (LS-513) was greater than 10.2 µM. The IC50 (LU-134-A) was greater than 10.2 µM, the IC50 (ML-2) was greater than 10.2 µM and the IC50 (MOLT-16) was greater than 10.2 µM. It also gave an IC50 (MSTO-211H) greater than 10.2 µM, an IC50 (MZ1-PC) of 6.97 µM and an IC50 (NCI-H1395) greater than 10.2 µM. The IC50 (NCI-H209) was greater than 10.2 µM, the IC50 (NCI-H747) was greater than 10.2 µM and the IC50 (SNU1) was greater than 10.2 µM. The IC50 (NOMO-1) was greater than 10.2 µM, the IC50 (ONS-76) was 8.58 µM and the IC50 (RH-1) was 5.29 µM. For the same compound, the IC50 (RKO) was 3.37 µM, the IC50 (RPMI-8866) was greater than 10.2 µM and the IC50 (SCH) was greater than 10.2 µM. The IC50 (SHP77) was greater than 10.2 µM, the IC50 (SK-N-FI) was greater than 10.2 µM and the IC50 (A101D) was greater than 10.2 µM. The IC50 (ACN) was 6.01 µM, the IC50 (AM-38) was greater than 10.2 µM and the IC50 (BB30-HNC) was 3.92 µM. The IC50 (Becker) was greater than 10.2 µM, the IC50 (C8166) was greater than 10.2 µM and the IC50 (TE-5) was greater than 10.2 µM. The IC50 (U-87 MG) was greater than 10.2 µM, the IC50 (CAS-1) was greater than 10.2 µM and the IC50 (CCRF-CEM) was 5.76 µM.

`O=S(=O)(O)c1ccc2cc(/N=N/c3cc(S(=O)(=O)O)c4cccnc4c3O)ccc2c1` gave an IC50 (ES1) greater than 16000 nM, an IC50 (ES4) greater than 16 µM and an IC50 (EW-13) of 5170 nM. It also gave an IC50 (EW-16) greater than 16 µM, an IC50 (HCC2157) greater than 16 µM and an IC50 (HOP-62) greater than 16 µM. For the same compound, the IC50 (IST-MEL1) was greater than 16 µM, the IC50 (JVM-3) was greater than 16 µM and the IC50 (KALS-1) was greater than 16 µM. It also gave an IC50 (KARPAS-299) greater than 16 µM, an IC50 (KE-37) greater than 16 µM and an IC50 (KNS-81-FD) greater than 16 µM. The IC50 (KP-N-YS) was greater than 16 µM, the IC50 (LAMA-84) was greater than 16 µM and the IC50 (LAN-6) was greater than 16 µM. For the same compound, the IC50 (LB771-HNC) was greater than 16 µM, the IC50 (LB831-BLC) was greater than 16 µM and the IC50 (LB996-RCC) was greater than 16 µM. It also gave an IC50 (LC-2-ad) greater than 16 µM, an IC50 (LNCaP-Clone-FGC) greater than 16 µM and an IC50 (LS-513) greater than 16 µM. For the same compound, the IC50 (LU-134-A) was greater than 16 µM, the IC50 (ML-2) was greater than 16 µM and the IC50 (MOLT-16) was greater than 16 µM. The IC50 (MSTO-211H) was greater than 16 µM, the IC50 (MZ1-PC) was greater than 16 µM and the IC50 (NCI-H1395) was greater than 16 µM. It also gave an IC50 (NCI-H209) greater than 16 µM, an IC50 (NCI-H747) greater than 16 µM and an IC50 (SNU1) greater than 16 µM. For the same compound, the IC50 (NOMO-1) was greater than 16 µM, the IC50 (ONS-76) was greater than 16 µM and the IC50 (RH-1) was greater than 16 µM. The IC50 (RKO) was greater than 16 µM, the IC50 (RPMI-8866) was greater than 16 µM and the IC50 (SCH) was greater than 16 µM. It also gave an IC50 (SHP77) greater than 16 µM, an IC50 (SK-N-FI) greater than 16 µM and an IC50 (A101D) greater than 16 µM. It also gave an IC50 (ACN) greater than 16 µM, an IC50 (AM-38) greater than 16 µM and an IC50 (BB30-HNC) greater than 16 µM. For the same compound, the IC50 (Becker) was greater than 16 µM, the IC50 (C8166) was greater than 16 µM and the IC50 (TE-5) was greater than 16 µM. It also gave an IC50 (U-87 MG) greater than 16 µM, an IC50 (CAS-1) greater than 16 µM and an IC50 (CCRF-CEM) greater than 16 µM.

For `NC(=O)c1cccc(-c2cc(Nc3ccc(OC(F)(F)F)cc3)ncn2)c1`, the IC50 (ES1) was greater than 1280 nM, the IC50 (ES4) was greater than 1.28 µM and the IC50 (EW-13) was greater than 1280 nM. For the same compound, the IC50 (EW-16) was greater than 1.28 µM, the IC50 (HCC2157) was greater than 1.28 µM and the IC50 (HOP-62) was greater than 1.28 µM. The IC50 (IST-MEL1) was greater than 1.28 µM, the IC50 (JVM-3) was greater than 1.28 µM and the IC50 (KALS-1) was greater than 1.28 µM. It also gave an IC50 (KARPAS-299) greater than 1.28 µM, an IC50 (KE-37) greater than 1.28 µM and an IC50 (KNS-81-FD) greater than 1.28 µM. The IC50 (KP-N-YS) was greater than 1.28 µM, the IC50 (LAMA-84) was 0.163 µM and the IC50 (LAN-6) was greater than 1.28 µM. It also gave an IC50 (LB771-HNC) greater than 1.28 µM, an IC50 (LB831-BLC) greater than 1.28 µM and an IC50 (LB996-RCC) greater than 1.28 µM. For the same compound, the IC50 (LC-2-ad) was greater than 1.28 µM, the IC50 (LNCaP-Clone-FGC) was greater than 1.28 µM and the IC50 (LS-513) was greater than 1.28 µM. It also gave an IC50 (LU-134-A) greater than 1.28 µM, an IC50 (ML-2) greater than 1.28 µM and an IC50 (MOLT-16) greater than 1.28 µM. The IC50 (MSTO-211H) was greater than 1.28 µM, the IC50 (MZ1-PC) was greater than 1.28 µM and the IC50 (NCI-H1395) was greater than 1.28 µM. The IC50 (NCI-H209) was greater than 1.28 µM, the IC50 (NCI-H747) was greater than 1.28 µM and the IC50 (SNU1) was greater than 1.28 µM. The IC50 (NOMO-1) was greater than 1.28 µM, the IC50 (ONS-76) was greater than 1.28 µM and the IC50 (RH-1) was greater than 1.28 µM. The IC50 (RKO) was greater than 1.28 µM, the IC50 (RPMI-8866) was greater than 1.28 µM and the IC50 (SCH) was greater than 1.28 µM. For the same compound, the IC50 (SHP77) was greater than 1.28 µM, the IC50 (SK-N-FI) was greater than 1.28 µM and the IC50 (A101D) was greater than 1.28 µM. It also gave an IC50 (ACN) greater than 1.28 µM, an IC50 (AM-38) greater than 1.28 µM and an IC50 (BB30-HNC) greater than 1.28 µM. The IC50 (Becker) was greater than 1.28 µM, the IC50 (C8166) was greater than 1.28 µM and the IC50 (TE-5) was greater than 1.28 µM. For the same compound, the IC50 (U-87 MG) was greater than 1.28 µM, the IC50 (CAS-1) was greater than 1.28 µM and the IC50 (CCRF-CEM) was greater than 1.28 µM.
